Measured values taken from US6683060B2, “Matrix metalloproteinase and tumor necrosis factor inhibitors” (Advanced Gene Technology Corp., priority 2002, dated 2004).
Read-outs that look alike come from different tables or passages of the source.

Tests used:
[1] = system: COLO205, PC-3, A375, A549 cell lines; assay: Invasive/metastatic potential of cancer cells, Boyden chemotaxis assay chambers, other four cell lines; assay type: cell-based, human; conditions: same concentration ranges as ES-2, data not shown
Procedure: (§1) COLO205 is a human colon cancer-derived cell line. It was maintained in a RPMI 1640 medium (Hyclone), and supplemented with 10% heat-inactivated FBS.
(§2) PC-3 is a human prostate cancer-derived cell line. It was maintained in a Ham's F12 K medium (Gibco) and supplemented with 7% FBS.
(§3) A375 is a human malignant melanoma-derived cell line. It was maintained in a Dulbecco's modified Eagle's medium (DMEM, Hyclone) and supplemented with 10% FBS, 4 mM L-glutamine, 4.5 g/l glucose, and 1.0 mM sodium pyruvate.
(§4) A549 is a human lung cancer-derived cell line. It was maintained in a F12K medium (Gibco) and supplemented with 10% FBS.
(§5) In this method, Boyden chemotaxis assay chambers (Costar Transwell plates) were used. Each Boyden chemotaxis assay chamber included a top chamber having a filter as the bottom side of the top chamber and a bottom well surrounding the top chamber. The bottom side of the top chamber used here was an 8 μm-pore polycarbonate filter.
0.35 ml of a medium with complete nutrition supplements as a chemo-attractant was added to each bottom well. Cancer cells (2×10^5 in 50 μl) were then plated on the filters in each of the top chambers. […]
After an 18-hour incubation, the cells in the top chambers were carefully emptied with sterile cotton buds. […] After incubating for 4 hours, absorbance (O.D.) was measured at 450 nm with the reference wavelength at 690 nm. […]

TNFα binding to TNFα-RI = TNFα binding to TNFα-RI (Homo sapiens, UniProt P01375+P19438); assay: Inhibition of binding of biotinylated TNFα to TNFα-RI on coated microtiter plate
TNFα binding to TNFα-RI, sequence (P01375 77-233 limits assumed): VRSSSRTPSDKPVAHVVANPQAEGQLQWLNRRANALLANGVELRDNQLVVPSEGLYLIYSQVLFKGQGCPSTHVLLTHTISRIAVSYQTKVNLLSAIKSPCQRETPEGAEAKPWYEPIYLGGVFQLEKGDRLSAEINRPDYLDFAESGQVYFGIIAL
TNFα binding to TNFα-RI, sequence (P19438 22-211 limits assumed): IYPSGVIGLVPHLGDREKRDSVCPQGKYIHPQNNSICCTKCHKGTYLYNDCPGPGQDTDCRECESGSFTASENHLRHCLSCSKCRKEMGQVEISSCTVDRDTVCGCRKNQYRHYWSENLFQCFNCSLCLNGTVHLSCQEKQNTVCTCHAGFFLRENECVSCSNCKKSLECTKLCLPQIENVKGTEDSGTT
Procedure: 50 μl TNFα-RI at a concentration of 0.25 μg/ml was coated onto each well of a 96-well C-bottom microtiter plate (Nunc) in a 50 mM carbonate buffer (pH 9.5) at 4° C. overnight. The plate was washed 3 times with 200 μl TBST solution composed of 50 mM Tris.HCl (pH 7.35) containing 0.15 M NaCl and 0.05% Tween 20 to remove excess TNFα-RI. 200 μl/well of 0.5% BSA in PBS was added to each plate for blocking of the TNFα-RI. The reaction was carried out at 37° C. for 2 hours followed by washing 4 times with TBST to remove excess BSA.
Compound 1 was serially diluted in TBST solution. Biotinylated TNFα with a concentration of 0.5 μg/ml was mixed with Compound 1 solution in a volume ratio of 1:1. The reaction was allowed to proceed for 30 minutes at 37° C. with shaking at 500 rpm for allowing mixing. The mixtures were then added to the TNFα-RI coated plate, 50 μl for each well. The plate was then incubated at 37° C. for 2 hours with shaking again at 500 rpm, for competitive binding of the biotinylated TNFα and Compound 1.
Followed by washing 4 times with TBST, Extravidin-alkaline phosphatase (Sigma) diluted in TBST (1/5,000) was added to the plate, 50 μl/well. The plate was further incubated at 37° C. for 2 hours and then washed 4 times with TBST. […] After a 30-minute incubation at room temperature, absorbance at the wavelength of 405 nm was measured. […]

[2] = system: ES-2, COLO205, PC-3, A375, and A549 cell lines; assay: Proliferation/cytotoxicity assay on cancer cell lines (XTT assay); assay type: cell-based, human; conditions: 72 hours exposure, five cancer cell lines; for cellular viability (XTT assay): serially two-fold diluted from 0.258 mg/ml, data not shown
Excerpt: Five cancer-derived cell lines obtained from the American Type Culture Collection (ATCC) were used for the following proliferation/cytotoxicity assay. These cell lines are listed as follow:
(§6) ES-2 is a human ovarian carcinoma. It was maintained in a modified McCoy's 5A medium (Gibco) and supplemented with 10% FBS (fetal bovine serum).
as §1, §2, §3, §4
To determine the cytotoxicity of Compound 1 or uridine on each cancer cell lines, ES-2, COLO205, PC-3, A375, and A549 cell lines were used. Each cancer cell line at a concentration of 1×10^4 cells/100 μl in each well (Falcon, MicroTest™ 96) was exposed to Compound 1, uridine or 1 μM paclitaxel (taxol, Sigma) for 72 hours in a complete medium. The Compound 1 and uridine were serially two-fold diluted from the concentration of 0.258 mg/ml.
Cellular viability was estimated by the tetrazolium dye reduction assay (XTT assay, Boehringer Mannheim). The amount of XTT reagent (a tetrazolium salt) added to the bottom wells was 100 μl/well and its concentration was 1 mg/ml. The-wells were incubated for 4 hours to allow viable cells to develop color. Absorbance (O.D.) was measured at 450 nm with the reference wavelength at 690 nm.

MMP-2 = biological target: T1, MMP-2 (Homo sapiens, UniProt P08253); assay: Inhibition of MMP-2 gelatinase activity on microtiter plates (biotinylated gelatin hydrolysis); assay type: biochemical
T1 construct: The purified enzyme was already an active form with a molecular weight of about 64K; endogenous in cells; host or cells: ES-2 human ovarian carcinoma cells (secreted into serum-free conditioned medium; purified on gelatin-Sepharose 4B)
T1 sequence (P08253 110-660): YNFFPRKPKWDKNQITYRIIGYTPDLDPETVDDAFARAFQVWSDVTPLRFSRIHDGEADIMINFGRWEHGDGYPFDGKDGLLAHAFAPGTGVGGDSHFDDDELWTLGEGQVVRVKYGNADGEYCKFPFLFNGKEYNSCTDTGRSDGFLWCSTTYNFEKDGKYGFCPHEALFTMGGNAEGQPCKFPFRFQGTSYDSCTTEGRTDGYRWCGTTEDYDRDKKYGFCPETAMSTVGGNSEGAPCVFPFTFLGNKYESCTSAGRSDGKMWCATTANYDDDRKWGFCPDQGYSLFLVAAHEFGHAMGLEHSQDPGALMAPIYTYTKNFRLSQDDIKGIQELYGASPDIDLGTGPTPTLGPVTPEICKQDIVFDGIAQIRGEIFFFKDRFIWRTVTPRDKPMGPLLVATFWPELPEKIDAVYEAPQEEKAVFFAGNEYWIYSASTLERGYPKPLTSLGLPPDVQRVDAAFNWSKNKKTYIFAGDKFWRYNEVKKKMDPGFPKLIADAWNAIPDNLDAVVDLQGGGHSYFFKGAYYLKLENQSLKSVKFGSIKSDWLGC
Procedure: The MMP-2 enzyme was obtained from cancer cells and then purified by using gelatin-Sephose 4B (Pharmacia). Serum-free conditioned medium from human ovarian carcinoma cells, ES-2, was concentrated 50-fold and then MMP-2 enzyme was obtained by ultrafiltration using a 30,000 MW (molecular weight) cut-off membrane (YM-30, Amicon). The affinity matrix was equilibrated with an equilibration buffer, which was composed of 50 mM Tris.HCl (pH7.6), 10 mM EDTA and 0.01% Tween 20, containing 0.5 M NaCl. After extensive washing with the equilibration buffer containing 0.5 M NaCl, the bound enzyme was eluted with the equilibration buffer containing 1 M NaCl. […]
The plates were then read at 450 nm (reference length 470 nm) in a microtiter plate reader (Dynex, MRX). The absorbance at 450 nm […] as the concentration of MMP-2 […]. […] Therefore, in the reaction of BG with MMP-2, the absorbance should be a factor 3-5 times lower than an absorbance reading of BG without MMP-2 enzyme (a gelatinase). […]
The effect of Compound 1 on MMP-2 activity was measured by basically the same procedure as described in the section, GELATINASE ASSAY ON MICROTITER PLATES. As Compound 1 was similar to uridine in chemical structure, the effect of a commercial available uridine (Sigma, U-3750, D-Ribose) on MMP-2 activity was also measured for comparison in the experiment. […]

ES-2 cells = assay: Invasive/metastatic potential of cancer cells, Boyden chemotaxis assay chambers; assay type: cell-based, human; conditions: 18-hour incubation; for IC50: Homo sapiens
Procedure: as §6, §5
0.35 ml of a medium with complete nutrition supplements as a chemo-attractant was added to each bottom well. Cancer cells (2×10^5 in 50 μl) were then plated on the filters in each of the top chambers. Compound 1 or uridine was diluted in the serum-free medium to 0.536 mg/ml and then was added to the top chambers, with the volume of 50 μl/chamber. The control tests were performed with 2 μM paclitaxel (positive control) or with medium only (negative control) in the top chambers.
After an 18-hour incubation, the cells in the top chambers were carefully emptied with sterile cotton buds. 100 μl XTT reagent (1 mg/ml) was added to each of the bottom wells. After incubating for 4 hours, absorbance (O.D.) was measured at 450 nm with the reference wavelength at 690 nm. The ratio of the OD from the bottom wells to that of the OD from the bottom wells of the control tests was taken as the invasive potential. Results presented are from three different independent experiments.

SMILES | effect on invasive potential [1] | inhibition activity on TNFα binding to TNFα-RI compared with Suramin (TNFα binding to TNFα-RI; FIG. 6, Suramin as comparative compound) | IC50 (TNFα binding to TNFα-RI; biotinylated TNFα 0.5 μg/ml mixed 1:1 with compound, TNFα-RI coated plate, read-out: 50% inhibitory dose (IC50) on TNFα binding to TNFα-RI) [µM] | cellular viability (XTT assay) [2] | IC50 (MMP-2; purified MMP-2 from ES-2 conditioned medium, biotinylated gelatin substrate, read-out: 50% inhibitory dose (IC50) on MMP-2 activity) [µM] | IC50 (ES-2 cells; XTT readout of bottom wells, read-out: 50% inhibitory dose (IC50) on invasive potential) [µg/mL] | IC50 (ES-2 cells; printed conversion of 23 μg/ml, read-out: 50% inhibitory dose (IC50) on invasive potential, converted to molar) [µM] | inhibitory activity to MMP-2 (MMP-2; at the concentration of 0.82 mM, data not shown) | effect on invasive potential (ES-2 cells; data not shown) | inhibition of cell proliferation (XTT assay) ([2]; paclitaxel positive control)
O=c1ccn(C2OC(CCO)C(O)C2O)c(=O)[nH]1 (stereo not drawn) [Compound 1, 1-[3,4-dihydroxy-5-(2-hydroxyethyl)tetrahydrofuran-2-yl]pyrimidine-2,4(1H,3H)-dione] | not significantly affected | smaller than that of Suramin | 50 | did not reduce cellular viability | 150 | 23 | 90 | – | – | –
O=c1ccn([C@@H]2O[C@H](CO)[C@@H](O)[C@H]2O)c(=O)[nH]1 [uridine, reference compound] | did not show any effect | – | – | did not reduce cellular viability | – | – | – | no inhibitory activity | did not show any effect | –
CC(=O)O[C@H]1C(=O)[C@@]2(C)[C@H]([C@H](OC(=O)c3ccccc3)[C@]3(O)C[C@H](OC(=O)[C@H](O)[C@@H](NC(=O)c4ccccc4)c4ccccc4)C(C)=C1C3(C)C)[C@]1(OC(C)=O)CO[C@@H]1C[C@@H]2O [paclitaxel] | – | – | – | – | – | – | – | – | – | inhibition of cell proliferation was proportional to the concentration of paclitaxel
